Results reported in ChEMBL document CHEMBL4507266, “Data for DCP probe BAY-784” (2021).

How the values were obtained:
[1] = tested on: Tyrosine-protein kinase ABL1 (Homo sapiens), P00519 [T315I]; details: Compound concentration 1000.0 nM
[2] = biological target: Serine/threonine-protein kinase PknB (Mycobacterium tuberculosis) (UniProt P9WI81); details: Compound concentration 1000.0 nM
[3] = biological target: Leukocyte tyrosine kinase receptor (Homo sapiens) (UniProt P29376); details: Compound concentration 1000.0 nM
[4] = biological target: Dual specificity mitogen-activated protein kinase kinase 1 (Homo sapiens) (UniProt Q02750); details: Compound concentration 1000.0 nM
[5] = biological target: Fibroblast growth factor receptor 2 (Homo sapiens) (UniProt P21802); details: Compound concentration 1000.0 nM
[6] = biological target: Peripheral plasma membrane protein CASK (Homo sapiens) (UniProt O14936); details: Compound concentration 1000.0 nM
[7] = biological target: Serine/threonine-protein kinase 3 (Homo sapiens) (UniProt Q13188); details: Compound concentration 1000.0 nM
[8] = biological target: Serine/threonine-protein kinase pim-1 (Homo sapiens) (UniProt P11309); details: Compound concentration 1000.0 nM
[9] = biological target: Tyrosine-protein kinase Yes (Homo sapiens) (UniProt P07947); details: Compound concentration 1000.0 nM
[10] = biological target: Ephrin type-B receptor 4 (Homo sapiens) (UniProt P54760); details: Compound concentration 1000.0 nM
[11] = biological target: Serine/threonine-protein kinase 24 (Homo sapiens) (UniProt Q9Y6E0); details: Compound concentration 1000.0 nM
[12] = biological target: Serine/threonine-protein kinase 32C (Homo sapiens) (UniProt Q86UX6); details: Compound concentration 1000.0 nM
Sequence of Serine/threonine-protein kinase 32C (Homo sapiens) (Q86UX6 whole entry): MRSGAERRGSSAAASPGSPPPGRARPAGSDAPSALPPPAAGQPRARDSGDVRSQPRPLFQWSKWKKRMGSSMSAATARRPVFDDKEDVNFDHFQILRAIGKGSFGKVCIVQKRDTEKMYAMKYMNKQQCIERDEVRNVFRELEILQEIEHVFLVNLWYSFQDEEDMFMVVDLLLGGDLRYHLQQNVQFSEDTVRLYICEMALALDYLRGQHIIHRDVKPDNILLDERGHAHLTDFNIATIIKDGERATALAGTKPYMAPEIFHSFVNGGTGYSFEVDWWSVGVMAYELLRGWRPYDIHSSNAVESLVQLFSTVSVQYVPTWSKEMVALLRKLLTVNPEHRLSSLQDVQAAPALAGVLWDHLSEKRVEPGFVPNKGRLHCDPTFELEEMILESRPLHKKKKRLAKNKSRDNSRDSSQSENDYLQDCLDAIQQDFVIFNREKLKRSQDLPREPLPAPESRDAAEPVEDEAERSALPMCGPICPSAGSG

[13] = biological target: Mitogen-activated protein kinase kinase kinase 6 (Homo sapiens) (UniProt O95382); details: Compound concentration 1000.0 nM
[14] = biological target: Insulin receptor-related protein (Homo sapiens) (UniProt P14616); details: Compound concentration 1000.0 nM
[15] = tested on: Receptor-type tyrosine-protein kinase FLT3 (Homo sapiens), P36888 [UNDEFINED MUTATION]; details: Compound concentration 1000.0 nM
[16] = biological target: Serine/threonine-protein kinase PLK1 (Homo sapiens) (UniProt P53350); details: Compound concentration 1000.0 nM
[17] = biological target: Cyclin-dependent kinase 2 (Homo sapiens) (UniProt P24941); details: Compound concentration 1000.0 nM
[18] = biological target: BDNF/NT-3 growth factors receptor (Homo sapiens) (UniProt Q16620); details: Compound concentration 1000.0 nM
[19] = biological target: Serine/threonine-protein kinase PAK 4 (Homo sapiens) (UniProt O96013); details: Compound concentration 1000.0 nM
[20] = biological target: G protein-coupled receptor kinase 4 (Homo sapiens) (UniProt P32298); details: Compound concentration 1000.0 nM
[21] = tested on: Epidermal growth factor receptor (Homo sapiens), P00533 [UNDEFINED MUTATION]; details: Compound concentration 1000.0 nM
Sequence of Epidermal growth factor receptor (Homo sapiens), P00533 [UNDEFINED MUTATION] (P00533 whole entry, looked up, change not shown): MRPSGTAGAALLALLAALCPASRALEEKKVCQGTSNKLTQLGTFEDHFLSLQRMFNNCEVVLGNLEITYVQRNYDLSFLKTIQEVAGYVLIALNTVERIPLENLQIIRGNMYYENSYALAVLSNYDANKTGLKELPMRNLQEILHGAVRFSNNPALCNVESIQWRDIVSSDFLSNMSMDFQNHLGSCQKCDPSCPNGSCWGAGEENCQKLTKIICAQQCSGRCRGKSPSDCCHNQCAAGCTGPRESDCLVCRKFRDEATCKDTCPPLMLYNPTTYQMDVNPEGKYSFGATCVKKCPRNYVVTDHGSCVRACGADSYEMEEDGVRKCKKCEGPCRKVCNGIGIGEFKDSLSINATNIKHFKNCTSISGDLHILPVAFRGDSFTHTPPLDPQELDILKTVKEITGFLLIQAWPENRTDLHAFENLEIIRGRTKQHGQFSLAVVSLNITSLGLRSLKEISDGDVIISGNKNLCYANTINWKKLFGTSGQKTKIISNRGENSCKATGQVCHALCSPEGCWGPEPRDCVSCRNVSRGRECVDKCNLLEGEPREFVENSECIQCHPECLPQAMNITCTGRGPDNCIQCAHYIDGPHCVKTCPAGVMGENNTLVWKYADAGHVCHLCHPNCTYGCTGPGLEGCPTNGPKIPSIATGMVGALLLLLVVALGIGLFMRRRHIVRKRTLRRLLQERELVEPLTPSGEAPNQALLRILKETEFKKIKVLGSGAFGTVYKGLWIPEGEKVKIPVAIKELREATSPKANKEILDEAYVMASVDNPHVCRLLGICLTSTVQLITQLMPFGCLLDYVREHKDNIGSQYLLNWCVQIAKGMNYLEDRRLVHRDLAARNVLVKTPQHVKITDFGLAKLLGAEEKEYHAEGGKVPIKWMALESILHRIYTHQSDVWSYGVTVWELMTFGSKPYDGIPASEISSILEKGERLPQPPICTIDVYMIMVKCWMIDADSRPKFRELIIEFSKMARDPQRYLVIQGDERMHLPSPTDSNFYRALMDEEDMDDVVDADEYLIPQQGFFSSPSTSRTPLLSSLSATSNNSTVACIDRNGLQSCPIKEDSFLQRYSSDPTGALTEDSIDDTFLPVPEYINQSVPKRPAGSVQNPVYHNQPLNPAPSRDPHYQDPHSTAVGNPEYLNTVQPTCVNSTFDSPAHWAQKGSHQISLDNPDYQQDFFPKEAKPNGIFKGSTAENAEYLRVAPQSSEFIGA

[22] = biological target: Tyrosine-protein kinase SYK (Homo sapiens) (UniProt P43405); details: Compound concentration 1000.0 nM
[23] = biological target: Mu-type opioid receptor (Homo sapiens) (UniProt P35372); details: Compound concentration 10.0 uM
[24] = biological target: Aurora kinase A (Homo sapiens) (UniProt O14965); details: Compound concentration 1000.0 nM
[25] = biological target: Serine/threonine-protein kinase Nek4 (Homo sapiens) (UniProt P51957); details: Compound concentration 1000.0 nM
[26] = biological target: Myotonin-protein kinase (Homo sapiens) (UniProt Q09013); details: Compound concentration 1000.0 nM
[27] = biological target: Dual serine/threonine and tyrosine protein kinase (Homo sapiens) (UniProt Q6XUX3); details: Compound concentration 1000.0 nM
[28] = biological target: SRSF protein kinase 2 (Homo sapiens) (UniProt P78362); details: Compound concentration 1000.0 nM
Sequence of SRSF protein kinase 2 (Homo sapiens) (P78362 whole entry, looked up): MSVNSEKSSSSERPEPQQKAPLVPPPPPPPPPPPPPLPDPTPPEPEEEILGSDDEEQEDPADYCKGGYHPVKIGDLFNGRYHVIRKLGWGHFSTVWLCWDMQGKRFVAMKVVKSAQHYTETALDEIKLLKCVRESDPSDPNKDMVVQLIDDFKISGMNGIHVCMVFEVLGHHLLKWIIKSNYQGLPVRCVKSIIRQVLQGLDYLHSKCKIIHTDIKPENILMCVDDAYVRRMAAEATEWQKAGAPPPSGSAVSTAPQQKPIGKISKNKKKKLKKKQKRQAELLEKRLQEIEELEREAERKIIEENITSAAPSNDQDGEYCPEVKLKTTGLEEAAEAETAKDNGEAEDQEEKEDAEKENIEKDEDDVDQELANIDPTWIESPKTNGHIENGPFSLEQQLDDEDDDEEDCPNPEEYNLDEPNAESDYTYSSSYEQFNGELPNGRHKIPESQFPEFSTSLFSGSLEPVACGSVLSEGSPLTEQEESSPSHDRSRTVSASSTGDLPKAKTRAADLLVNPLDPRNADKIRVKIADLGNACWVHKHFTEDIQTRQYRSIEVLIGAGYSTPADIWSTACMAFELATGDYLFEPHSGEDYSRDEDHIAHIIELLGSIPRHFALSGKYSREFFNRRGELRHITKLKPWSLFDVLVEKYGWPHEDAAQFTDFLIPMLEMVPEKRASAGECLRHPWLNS

[29] = biological target: Sigma intracellular receptor 2 (Homo sapiens, UniProt Q5BJF2); details: Compound concentration 10.0 uM
Sequence of Sigma intracellular receptor 2 (Q5BJF2 whole entry): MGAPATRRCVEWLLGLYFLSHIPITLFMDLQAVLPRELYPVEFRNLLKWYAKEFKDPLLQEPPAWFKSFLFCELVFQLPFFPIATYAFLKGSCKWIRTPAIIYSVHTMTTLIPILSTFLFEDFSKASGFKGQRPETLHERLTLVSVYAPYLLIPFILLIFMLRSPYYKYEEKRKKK

[30] = biological target: Tyrosine-protein kinase Srms (Homo sapiens) (UniProt Q9H3Y6); details: Compound concentration 1000.0 nM
[31] = biological target: Serine/threonine-protein kinase WNK1 (Homo sapiens) (UniProt Q9H4A3); details: Compound concentration 1000.0 nM
[32] = biological target: Rhodopsin kinase GRK7 (Homo sapiens) (UniProt Q8WTQ7); details: Compound concentration 1000.0 nM
[33] = tested on: Epidermal growth factor receptor (Homo sapiens), P00533 [UNDEFINED MUTATION]; details: Compound concentration 1000.0 nM; remark: listed apart in the source
[34] = biological target: Ribosomal protein S6 kinase alpha-6 (Homo sapiens) (UniProt Q9UK32); details: Compound concentration 1000.0 nM
Sequence of Ribosomal protein S6 kinase alpha-6 (Homo sapiens) (Q9UK32 whole entry): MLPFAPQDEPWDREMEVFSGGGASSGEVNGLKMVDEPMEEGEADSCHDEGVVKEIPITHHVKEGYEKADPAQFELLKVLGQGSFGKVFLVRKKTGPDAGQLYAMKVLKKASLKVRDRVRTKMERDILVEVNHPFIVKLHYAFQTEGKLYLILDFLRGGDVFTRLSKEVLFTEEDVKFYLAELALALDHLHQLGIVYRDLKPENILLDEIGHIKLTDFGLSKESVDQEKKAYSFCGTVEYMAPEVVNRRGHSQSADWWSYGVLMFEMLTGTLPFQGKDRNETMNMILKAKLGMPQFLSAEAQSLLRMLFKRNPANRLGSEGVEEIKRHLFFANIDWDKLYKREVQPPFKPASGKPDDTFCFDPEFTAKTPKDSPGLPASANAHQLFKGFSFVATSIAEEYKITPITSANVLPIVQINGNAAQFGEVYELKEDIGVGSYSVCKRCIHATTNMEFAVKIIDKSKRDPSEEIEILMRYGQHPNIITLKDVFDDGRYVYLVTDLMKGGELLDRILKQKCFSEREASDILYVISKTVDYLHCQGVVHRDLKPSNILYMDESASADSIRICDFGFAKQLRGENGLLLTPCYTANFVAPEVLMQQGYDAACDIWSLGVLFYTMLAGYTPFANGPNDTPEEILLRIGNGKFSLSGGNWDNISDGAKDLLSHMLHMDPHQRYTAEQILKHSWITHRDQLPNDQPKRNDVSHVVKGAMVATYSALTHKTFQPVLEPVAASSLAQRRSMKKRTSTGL

[35] = biological target: Sodium-dependent serotonin transporter (Homo sapiens) (UniProt P31645); details: Compound concentration 10.0 uM
[36] = tested on: Mast/stem cell growth factor receptor Kit (Homo sapiens), P10721 [L576P]; details: Compound concentration 1000.0 nM
[37] = biological target: Fibroblast growth factor receptor 4 (Homo sapiens) (UniProt P22455); details: Compound concentration 1000.0 nM
[38] = biological target: Mitogen-activated protein kinase 8 (Homo sapiens) (UniProt P45983); details: Compound concentration 1000.0 nM
[39] = biological target: Mast/stem cell growth factor receptor Kit (Homo sapiens) (UniProt P10721); details: Compound concentration 1000.0 nM
[40] = tested on: Receptor-type tyrosine-protein kinase FLT3 (Homo sapiens), P36888 [D835H]; details: Compound concentration 1000.0 nM
[41] = biological target: Ribosomal protein S6 kinase alpha-6 (Homo sapiens) (UniProt Q9UK32); details: Compound concentration 1000.0 nM; remark: listed apart in the source
[42] = biological target: Ephrin type-A receptor 5 (Homo sapiens) (UniProt P54756); details: Compound concentration 1000.0 nM
[43] = biological target: Mitogen-activated protein kinase kinase kinase 7 (Homo sapiens) (UniProt O43318); details: Compound concentration 1000.0 nM
Sequence of Mitogen-activated protein kinase kinase kinase 7 (Homo sapiens) (O43318 whole entry): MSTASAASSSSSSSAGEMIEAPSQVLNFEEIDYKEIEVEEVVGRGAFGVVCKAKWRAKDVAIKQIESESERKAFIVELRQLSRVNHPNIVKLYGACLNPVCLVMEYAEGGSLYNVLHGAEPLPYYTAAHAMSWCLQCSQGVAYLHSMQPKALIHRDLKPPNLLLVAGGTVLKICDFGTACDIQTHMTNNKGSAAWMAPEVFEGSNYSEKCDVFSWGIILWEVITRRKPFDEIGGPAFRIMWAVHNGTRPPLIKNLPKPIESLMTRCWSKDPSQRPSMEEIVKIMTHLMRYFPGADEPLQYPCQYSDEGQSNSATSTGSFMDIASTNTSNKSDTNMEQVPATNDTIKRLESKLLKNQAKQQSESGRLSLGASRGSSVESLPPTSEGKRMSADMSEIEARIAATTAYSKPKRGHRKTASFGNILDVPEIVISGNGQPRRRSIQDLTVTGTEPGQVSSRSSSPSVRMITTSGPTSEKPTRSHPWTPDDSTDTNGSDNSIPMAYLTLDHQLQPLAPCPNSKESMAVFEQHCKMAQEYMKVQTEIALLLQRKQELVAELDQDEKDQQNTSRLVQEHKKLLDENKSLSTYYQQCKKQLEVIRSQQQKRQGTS

[44] = biological target: Mitogen-activated protein kinase kinase kinase kinase 1 (Homo sapiens) (UniProt Q92918); details: Compound concentration 1000.0 nM
[45] = biological target: Protein kinase C iota type (Homo sapiens) (UniProt P41743); details: Compound concentration 1000.0 nM
Sequence of Protein kinase C iota type (Homo sapiens) (P41743 whole entry): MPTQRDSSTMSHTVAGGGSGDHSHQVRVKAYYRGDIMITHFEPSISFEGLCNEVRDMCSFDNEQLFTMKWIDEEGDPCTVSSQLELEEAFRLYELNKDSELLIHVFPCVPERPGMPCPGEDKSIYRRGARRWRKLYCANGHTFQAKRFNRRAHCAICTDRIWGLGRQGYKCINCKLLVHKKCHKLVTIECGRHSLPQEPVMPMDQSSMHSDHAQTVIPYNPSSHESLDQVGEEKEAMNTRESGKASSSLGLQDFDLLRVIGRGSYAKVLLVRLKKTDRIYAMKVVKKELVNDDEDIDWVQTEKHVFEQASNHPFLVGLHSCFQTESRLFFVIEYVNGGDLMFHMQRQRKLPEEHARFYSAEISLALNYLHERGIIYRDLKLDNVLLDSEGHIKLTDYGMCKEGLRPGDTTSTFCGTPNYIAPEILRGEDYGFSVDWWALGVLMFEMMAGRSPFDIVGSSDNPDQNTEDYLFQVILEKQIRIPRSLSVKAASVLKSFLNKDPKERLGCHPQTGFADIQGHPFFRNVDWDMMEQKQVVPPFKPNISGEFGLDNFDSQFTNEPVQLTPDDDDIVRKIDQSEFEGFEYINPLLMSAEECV

[46] = biological target: Mitogen-activated protein kinase 1 (Homo sapiens) (UniProt P28482); details: Compound concentration 1000.0 nM
Sequence of Mitogen-activated protein kinase 1 (Homo sapiens) (P28482 whole entry): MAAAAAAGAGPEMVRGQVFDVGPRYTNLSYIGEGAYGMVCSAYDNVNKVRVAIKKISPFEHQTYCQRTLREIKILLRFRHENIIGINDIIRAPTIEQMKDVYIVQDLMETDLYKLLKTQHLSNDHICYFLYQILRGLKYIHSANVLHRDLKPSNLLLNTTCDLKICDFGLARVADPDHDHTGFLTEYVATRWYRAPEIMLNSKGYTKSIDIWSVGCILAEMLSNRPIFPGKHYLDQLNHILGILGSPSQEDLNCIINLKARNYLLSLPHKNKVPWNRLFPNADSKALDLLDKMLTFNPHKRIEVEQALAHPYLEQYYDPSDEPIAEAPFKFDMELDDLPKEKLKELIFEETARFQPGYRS

Compound: O=C(NCc1ncc(C(F)(F)F)cc1Cl)c1ccc2c(c1)C1(CCS(=O)(=O)CC1)[C@H](C1CC1)N2S(=O)(=O)c1ccc(F)cc1 [BAY-784]
- residual activity [1]: 57%
- residual activity [2]: 96%
- residual activity [3]: 87%
- residual activity [4]: 98%
- residual activity [5]: 86%
- residual activity [6]: 75%
- residual activity [7]: 100%
- residual activity [8]: 100%
- residual activity [9]: 90%
- residual activity [10]: 100%
- residual activity [11]: 100%
- residual activity [12]: 100%
- residual activity [13]: 83%
- residual activity [14]: 100%
- residual activity [15]: 100%
- residual activity [16]: 86%
- residual activity [17]: 85%
- residual activity [18]: 60%
- residual activity [19]: 100%
- residual activity [20]: 100%
- residual activity [21]: 100%
- residual activity [22]: 100%
- inhibition [23]: 29.1%
- residual activity [24]: 97%
- residual activity [25]: 99%
- residual activity [26]: 93%
- residual activity [27]: 76%
- residual activity [28]: 91%
- inhibition [29]: 74.9%
- residual activity [30]: 71%
- residual activity [31]: 90%
- residual activity [32]: 80%
- residual activity [33]: 97%
- residual activity [34]: 87%
- inhibition [35]: -5.4%
- residual activity [36]: 100%
- residual activity [37]: 100%
- residual activity [38]: 87%
- residual activity [39]: 100%
- residual activity [40]: 92%
- residual activity [41]: 78%
- residual activity [42]: 100%
- residual activity [43]: 80%
- residual activity [44]: 100%
- residual activity [45]: 81%
- residual activity [46]: 81%

Compound: O=C(NCc1ncc(C(F)(F)F)cc1Cl)c1ccc2c(c1)C1(CCS(=O)(=O)CC1)[C@@H](C1CC1)N2S(=O)(=O)c1ccc(F)cc1 [BAY-786]
- residual activity [1]: 72%
- residual activity [2]: 84%
- residual activity [3]: 81%
- residual activity [4]: 91%
- residual activity [5]: 98%
- residual activity [6]: 64%
- residual activity [7]: 87%
- residual activity [8]: 74%
- residual activity [9]: 93%
- residual activity [10]: 94%
- residual activity [11]: 100%
- residual activity [12]: 100%
- residual activity [13]: 68%
- residual activity [14]: 100%
- residual activity [15]: 79%
- residual activity [16]: 82%
- residual activity [17]: 100%
- residual activity [18]: 71%
- residual activity [19]: 89%
- residual activity [20]: 100%
- residual activity [21]: 85%
- residual activity [22]: 100%
- inhibition [23]: 13.1%
- residual activity [24]: 81%
- residual activity [25]: 99%
- residual activity [26]: 86%
- residual activity [27]: 78%
- residual activity [28]: 100%
- inhibition [29]: 52.7%
- residual activity [30]: 60%
- residual activity [31]: 79%
- residual activity [32]: 65%
- residual activity [33]: 69%
- residual activity [34]: 100%
- inhibition [35]: -4.88%
- residual activity [36]: 76%
- residual activity [37]: 100%
- residual activity [38]: 55%
- residual activity [39]: 82%
- residual activity [40]: 100%
- residual activity [41]: 84%
- residual activity [42]: 77%
- residual activity [43]: 63%
- residual activity [44]: 89%
- residual activity [45]: 100%
- residual activity [46]: 83%
